In PMC10312992 (ACS Omega, 2023):

Legend:
α-glucosidase = α-glucosidase inhibition assay; format: biochemical; conditions: at 0.5 mM; mean ± S.E.M., n = 3
[1] = tested on: erythrocytes (heparinized bovine blood); assay: hemolytic activity; format: cell-based; conditions: 35 min at 37 °C, 10^8 cells/mL; PBS negative control 2.45 ± 0.01%

| α-glucosidase (%) inhibition (α-glucosidase) [%] | Structure (SMILES) | hemolysis (%) [1] [%] |
| --- | --- | --- |
| 93.38 ± 0.38 | CC(Sc1nnc(Cc2c[nH]c3ccccc23)o1)C(=O)NCCc1ccccc1 (stereo not shown) [8d, N-(2-Phenethyl)-2-({5-((1H-indol-3-yl)methyl)-1,3,4-oxadiazol-2-yl}sulfanyl)propanamide] | 0.05 ± 0.01 |
| 98.21 ± 0.31 | CCc1ccccc1NC(=O)C(C)Sc1nnc(Cc2c[nH]c3ccccc23)o1 (stereo not shown) [8h, N-(2-Ethylphenyl)-2-({5-((1H-indol-3-yl)methyl)-1,3,4-oxadiazol-2-yl}sulfanyl)propanmide] | 0.83 ± 0.01 |
| 97.56 ± 0.57 | COC(=O)c1ccccc1NC(=O)C(C)Sc1nnc(Cc2c[nH]c3ccccc23)o1 (stereo not shown) [8l, N-((2-Methoxycarbonyl)phenyl)-2-({5-((1H-indol-3-yl)methyl)-1,3,4-oxadiazol-2-yl}sulfanyl)propanamide] | 8.16 ± 0.02 |
| 92.23 ± 0.14 | C[C@H]1O[C@H](O[C@H]2[C@H](O)[C@@H](O)[C@@H](O[C@H]3[C@H](O)[C@@H](O)C(O)O[C@@H]3CO)O[C@@H]2CO)[C@H](O)[C@@H](O)[C@@H]1N[C@H]1C=C(CO)[C@@H](O)[C@H](O)[C@H]1O (stereo partly shown) [acarbose, reference compound] | – |
